The test system of data set [1] is SARS-CoV-2 isolate USA-WA1/2020. Description: microbe, parasite or virus in culture. The data set is classed as cell-based. The following applies: for inhibition at 2.1 µM: Conc. 2.1 µM (0.4 × CC50); for EC50: read-out: SARS-CoV-2 EC50.
Data set [2] has as its target T1, p97 (Homo sapiens, UniProt P55072).
T1 construct: made in house
In words: p97 biochemical assay (ATPase activity, PNP/MesG coupled). The conditions noted are these: 0.2 mM ATP, 5 min preincubation; for inhibition at 0.1 µM: read-out: p97 Inhib. (%) at 0.10 µM, compound 0.10 µM; for inhibition at 1 µM: read-out: p97 Inhib. (%) at 1.0 µM, compound 1.0 µM; for p97 Inhib. (%) at 0.10 µM: compound 0.10 µM.

Data set [3] in a line: Cell viability assay (MTS) in non-infected cells. The following applies: human.
Data set [4] has as its system A549/ACE2/TMPRSS2 cells. Description: Cell viability assay (MTS) in non-infected cells.
The mark [5] stands for this setting: Severe acute respiratory syndrome coronavirus 2, A549/ACE2/TMPRSS2, MOI 0.01, 48 h, mean ± standard error, read-out: SARS-CoV-2 Inhib. (%).
Where [6] appears, read: tested at 0.4 × CC50, or at 50 µM if CC50 higher than 100 µM, A549/ACE2/TMPRSS2.
[7] abbreviates: Severe acute respiratory syndrome coronavirus 2, A549-ACE2, 48 h.
Where [8] appears, read: Severe acute respiratory syndrome coronavirus 2, A549-ACE2, 48 h, read-out: SARS-CoV-2 Inhib. (%).
[9] abbreviates: Severe acute respiratory syndrome coronavirus 2, Conc. 50 µM, A549/ACE2/TMPRSS2, MOI 0.01, 48 h, mean ± standard error, read-out: SARS-CoV-2 Inhib. (%).

Experimental findings from PMC11768289 (Pharmaceuticals, 2025) are described below.

Each structure is given as a SMILES string. Where two headings read alike, the source gives them in different places.

T1 sequence (P55072 whole entry): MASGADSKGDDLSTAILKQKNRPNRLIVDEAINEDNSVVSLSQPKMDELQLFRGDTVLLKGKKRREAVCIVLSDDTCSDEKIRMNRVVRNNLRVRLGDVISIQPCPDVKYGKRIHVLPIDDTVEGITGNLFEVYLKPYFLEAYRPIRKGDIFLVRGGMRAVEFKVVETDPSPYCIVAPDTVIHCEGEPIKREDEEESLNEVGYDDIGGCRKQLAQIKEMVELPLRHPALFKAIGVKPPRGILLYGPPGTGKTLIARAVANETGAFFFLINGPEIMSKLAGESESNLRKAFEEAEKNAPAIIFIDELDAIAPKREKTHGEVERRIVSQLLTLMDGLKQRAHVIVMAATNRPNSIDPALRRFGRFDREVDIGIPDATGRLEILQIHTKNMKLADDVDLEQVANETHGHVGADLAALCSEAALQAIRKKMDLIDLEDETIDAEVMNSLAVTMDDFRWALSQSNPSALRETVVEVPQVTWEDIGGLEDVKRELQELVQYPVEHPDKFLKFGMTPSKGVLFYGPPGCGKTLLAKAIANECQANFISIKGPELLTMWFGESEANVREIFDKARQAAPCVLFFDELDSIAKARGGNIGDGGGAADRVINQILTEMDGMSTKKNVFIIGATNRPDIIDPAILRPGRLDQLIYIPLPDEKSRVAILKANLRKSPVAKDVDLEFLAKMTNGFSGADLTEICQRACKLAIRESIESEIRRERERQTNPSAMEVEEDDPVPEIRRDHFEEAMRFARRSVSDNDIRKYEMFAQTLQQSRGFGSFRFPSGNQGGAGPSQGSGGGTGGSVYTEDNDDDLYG

Regarding `C=CC(=O)Nc1cccc2c1cc(C)n2-c1nc(NCc2ccccc2)cc(N2CCOCC2)n1` [Compound 8b, N-(1-(4-(Benzylamino)-6-morpholinopyrimidin-2-yl)-2-methyl-1H-indol-4-yl)acrylamide], the inhibition at 2.1 µM in data set [1] (setting [5]) came out at 5 ± 8%. Also, in data set [2], the inhibition at 0.1 µM turned out to be 77% and the inhibition at 1 µM is 96%. For the same molecule, in data set [3], half-maximal cytotoxicity (CC50 at 48 h) was put at 5.2 µM.
As to `C=CS(=O)(=O)Nc1cccc2c1cc(C)n2-c1nc(NCc2ccccc2)cc(C2CCCCC2)n1` [Compound 10c, N-(1-(4-(Benzylamino)-6-cyclohexylpyrimidin-2-yl)-2-methyl-1H-indol-4-yl)ethenesulfonamide], the inhibition at 4.8 µM in data set [1] (Severe acute respiratory syndrome coronavirus 2, Conc. 4.8 µM (0.4 × CC50), A549/ACE2/TMPRSS2, MOI 0.01, 48 h, mean ± standard error, read-out: SARS-CoV-2 Inhib. (%)) was determined as 7 ± 3%. Besides, the “anti-SARS-CoV-2 activity (in words)” value in data set [1] (setting [6]) was “marginal inhibition”. In addition, in data set [2], the inhibition at 0.1 µM was found to be 68% and the inhibition at 1 µM was found to be 95%. Also, in data set [3], the CC50 (usually the concentration that lowers cell viability or growth by half) at 48 h is 12 µM.
Regarding `Cc1cc(OCc2nnc(SC3CCCC3)n2-c2cccnc2)ccc1-c1ccc(S(C)(=O)=O)cc1` [NMS-873, reference compound], in data set [1] (Severe acute respiratory syndrome coronavirus 2, Conc. 1.6 µM (0.4 × CC50), A549/ACE2/TMPRSS2, MOI 0.01, 48 h, mean ± standard error, read-out: SARS-CoV-2 Inhib. (%)), the inhibition at 1.6 µM was found to be 0%. For the same molecule, the “anti-SARS-CoV-2 activity (in words)” value in data set [1] (setting [6]) was “minimal inhibition”. In data set [2], the “p97 Inhib. (%) at 0.10 µM” value is listed as “poor inhibition”, the inhibition at 0.1 µM came to 5% and the inhibition at 1 µM is 84%. The molecule further came in with a CC50 at 48 h in data set [3] of 4.1 µM. The “fold less toxic than CB-5083” value in data set [4] (A549/ACE2/TMPRSS2 cells, relative to CB-5083) is on record as “approximately 4 fold”.
Turning to `CC#CC(=O)Nc1cccc2c1cc(C)n2-c1nc(NCc2ccccc2)cc(C2CCCCC2)n1` [Compound 10a, N-(1-(4-(Benzylamino)-6-cyclohexylpyrimidin-2-yl)-2-methyl-1H-indol-4-yl)but-2-ynamide], the EC50 (as a rule, the concentration giving half of the maximal effect) in data set [1] (setting [7]) came out at 6.8 ± 0.6 µM. Besides, the inhibition at 50 µM in data set [1] (setting [8]) was 96 ± 1%. For the same molecule, the “anti-SARS-CoV-2 activity (in words)” value in data set [1] (setting [6]) is listed as “excellent antiviral activity”. Also, in data set [2], the inhibition at 0.1 µM was about 90% and the inhibition at 1 µM amounted to 100%. Besides, the CC50 at 48 h in data set [3] is over 100 µM.
Take `CCC(CC)COC(=O)[C@H](C)N[P@](=O)(OC[C@H]1O[C@@](C#N)(c2ccc3c(N)ncnn23)[C@H](O)[C@@H]1O)Oc1ccccc1` [remdesivir, reference compound]: the EC50 in data set [1] (setting [7]) came to 0.044 µM. For the same molecule, in data set [1] (setting [8]), the inhibition at 2 µM was 100%. The CC50 at 48 h in data set [3] was over 10 µM.
Turning to `CC#CC(=O)Nc1cccc2c1cc(C)n2-c1nc2c(c(NCc3ccccc3)n1)CCCC2` [Compound 6a, reference compound], the inhibition at 0.22 µM in data set [1] (Severe acute respiratory syndrome coronavirus 2, Conc. 0.22 µM (0.4 × CC50), A549/ACE2/TMPRSS2, MOI 0.01, 48 h, mean ± standard error, read-out: SARS-CoV-2 Inhib. (%)) was 6 ± 3%. The “anti-SARS-CoV-2 activity (in words)” value in data set [1] (setting [6]) is reported as “minimal inhibition”. Moreover, in data set [2], the inhibition at 0.1 µM was 57% and the inhibition at 1 µM was 97%.
For `Cc1cc2c(C(N)=O)cccc2n1-c1nc2c(c(NCc3ccccc3)n1)COCC2` [CB-5083, reference compound], the “anti-SARS-CoV-2 activity (in words)” value in data set [1] is “minimal inhibition”. Also, the inhibition at 0.38 µM in data set [1] (setting [8]) worked out at 6 ± 4%. In addition, in data set [3], the CC50 at 48 h was 0.95 µM. Further, in data set [4] (non-infected A549/ACE2/TMPRSS2 cells, MTS, 48 h), the CC50 result is “highly toxic”.
As for `C=CS(=O)(=O)Nc1cccc2c1cc(C)n2-c1nc(NCc2ccccc2)cc(N2CCOCC2)n1` [Compound 8c, N-(1-(4-(Benzylamino)-6-morpholinopyrimidin-2-yl)-2-methyl-1H-indol-4-yl)ethenesulfonamide], the inhibition at 2.1 µM in data set [1] (setting [5]) is 8 ± 3%. In data set [2], the inhibition at 0.1 µM was 65% and the inhibition at 1 µM was determined as 89%. The molecule also showed a CC50 at 48 h in data set [3] of 5.2 µM.
Consider `CC#CC(=O)Nc1cccc2c1cc(C)n2-c1nc2c(c(NCc3ccccc3)n1)COCC2` [Compound 6b, reference compound], for which the inhibition at 0.46 µM in data set [1] (Severe acute respiratory syndrome coronavirus 2, Conc. 0.46 µM (0.4 × CC50), A549/ACE2/TMPRSS2, MOI 0.01, 48 h, mean ± standard error, read-out: SARS-CoV-2 Inhib. (%)) was 5%. In addition, the “anti-SARS-CoV-2 activity (in words)” value in data set [1] (setting [6]) was “minimal inhibition”. Further, in data set [2], the inhibition at 0.1 µM is 38% and the inhibition at 1 µM came out at 95%.
With `Cc1cc2c(C(N)=O)cccc2n1-c1nc(NCc2ccccc2)cc(C2CCCCC2)n1` [Compound 12], in data set [2] (compound 1.0 µM), the “p97 Inhib. (%) at 1.0 µM” value is reported as “minimal inhibition”. In data set [2], the inhibition at 0.1 µM worked out at 18% and the inhibition at 1 µM is 21%.
For `C=CC(=O)Nc1cccc2c1cc(C)n2-c1nc(NCc2ccccc2)cc(N2CCCCC2)n1` [Compound 9b, N-(1-(4-(Benzylamino)-6-(piperidin-1-yl)pyrimidin-2-yl)-2-methyl-1H-indol-4-yl)acrylamide], in data set [1] (setting [9]), the inhibition at 50 µM was found to be 28 ± 3%. The “anti-SARS-CoV-2 activity (in words)” value in data set [1] (setting [6]) is given as “markedly reduced”. In data set [2], the inhibition at 0.1 µM was 64% and the inhibition at 1 µM was found to be 91%.
For the molecule `CC#CC(=O)Nc1cccc2c1cc(C)n2-c1nc(NCc2ccccc2)cc(N2CCCCC2)n1` [Compound 9a, N-(1-(4-(Benzylamino)-6-(piperidin-1-yl)pyrimidin-2-yl)-2-methyl-1H-indol-4-yl)but-2-ynamide], in data set [1] (setting [7]), the EC50 came out at 6.7 ± 0.8 µM. Further, the inhibition at 30 µM in data set [1] (setting [8]) is 98%. In addition, the “anti-SARS-CoV-2 activity (in words)” value in data set [1] (setting [6]) was “excellent antiviral activity”. Also, in data set [2], the “p97 Inhib. (%) at 0.10 µM” value was determined as 94%, the inhibition at 0.1 µM was over 90% and the inhibition at 1 µM was found to be 100%. The molecule also had a CC50 at 48 h in data set [3] of 76 µM.
As for `C=CS(=O)(=O)Nc1cccc2c1cc(C)n2-c1nc(NCc2ccccc2)cc(N2CCCCC2)n1` [Compound 9c, N-(1-(4-(Benzylamino)-6-(piperidin-1-yl)pyrimidin-2-yl)-2-methyl-1H-indol-4-yl)ethenesulfonamide], in data set [1] (setting [8]), the inhibition at 5.9 µM was 0%. The “anti-SARS-CoV-2 activity (in words)” value in data set [1] (setting [6]) is “marginal inhibition”. Further, in data set [2], the inhibition at 0.1 µM came out at 73% and the inhibition at 1 µM is 95%. The same molecule had a CC50 at 48 h in data set [3] of 15 µM.
Regarding `CC#CC(=O)Nc1cccc2c1cc(C)n2-c1nc(NCc2ccccc2)cc(N2CCOCC2)n1` [Compound 8a, N-(1-(4-(Benzylamino)-6-morpholinopyrimidin-2-yl)-2-methyl-1H-indol-4-yl)but-2-ynamide], the inhibition at 0.96 µM in data set [1] (setting [8]) worked out at 3 ± 5%. In data set [2], the inhibition at 0.1 µM was about 90% and the inhibition at 1 µM is 97%. This molecule also had a CC50 at 48 h in data set [3] of 2.4 µM.
Turning to `C=CC(=O)Nc1cccc2c1cc(C)n2-c1nc(NCc2ccccc2)cc(C2CCCCC2)n1` [Compound 10b, N-(1-(4-(Benzylamino)-6-cyclohexylpyrimidin-2-yl)-2-methyl-1H-indol-4-yl)acrylamide], the inhibition at 50 µM in data set [1] (setting [9]) stood at 30 ± 9%. Also, the “anti-SARS-CoV-2 activity (in words)” value in data set [1] (setting [6]) was “markedly reduced”. Further, in data set [2], the inhibition at 0.1 µM amounted to 70% and the inhibition at 1 µM is 96%. This molecule registered a CC50 at 48 h in data set [3] of over 100 µM.
